How the values were obtained:
[1] = system: canola event DP-73496-4 (GAT1); assay: Herbicide efficacy field trials, chlorosis / crop response after late stage glyphosate application; format: in vivo
Source text: Field trials were split plot designed with glyphosate treatments as the main factor and entries as the subplot. Entries were randomized within the split factor, and the split was randomized within the replicate.
The following treatments with glyphosate were used as detailed below at different growth stages. In these tests, 1X glyphosate treatment was 675 g ae/ha, 2X glyphosate treatment was 1350 g ae/ha, 3X glyphosate treatment was 2025 g ae/ha and 4X glyphosate treatment was 2700 g ae/ha. All treatments were applied using a mechanical sprayer. For example, in Treatment 1 below, “2X cotyledon” describes a treatment of 1350 g ae/ha of glyphosate at the cotyledon growth stage. Various treatments were tested over a two year period and are described below.
(§1) • 1. 2X cotyledon • 2. 2X 3-5 leaf stage • 3. 2X cot+2X 3-5 leaf stage • 4. 2X cot+2X bolting BBCH55 • 5. 4X cotyledon • 6. 4X 3-5 leaf stage Treatments Tested in Year 2: • 1. 1X cotyledon+1X 3-5 leaf stage • 2. 2X cotyledon+2X 3-5 leaf stage • 3. 1X cotyledon+1X green bud BBCH51 • 4. 2X cotyledon+2X green bud BBCH51 • 5. 1X cotyledon+1X 10% flower BBCH61 • 6. 2X cotyledon+2X 10% flower BBCH61
Percent chlorosis was determined. Visual rating of chlorosis on plants was taken during the period indicated (i.e. 3-5 days) after spray application. Yellowing of the apical meristem, newest leaves or older leaves indicated herbicide-induced chlorotic injury. 100%=all tissue is yellow, 0%=no signs of yellowing tissue.
Late stage glyphosate applications are applications of glyphosate at later growth stages than on the glyphosate label. […] In Year 1, the expanded window application of glyphosate was 2X cot+2X bolting BBCH55; a 2X treatment during the cotyledon stage and an additional 2X treatment during the plant growth stage where individual flower buds (main inflorescence) are visible but are still closed. In Year 2, 1X cotyledon, 1X green bud BBCH51; 2X cotyledon, 2X green bud BBCH51; 1X cotyledon, 1X 10% flower BBCH61; and 2X cotyledon, 2X 10% flower BBCH61 expanded window treatments were included.

[2] = system: canola event DP-73496-4 (GAT1); assay: Herbicide efficacy field trials, determination of yield; format: in vivo
Protocol: Field trials were split plot designed with glyphosate treatments as the main factor and entries as the subplot. The split-plot design was used since more than one glyphosate treatment in each location was evaluated, where a different treatment to an individual plot was applied. In split-plot, the levels of the main-plot factor (glyphosate treatments) and the sub-plot factors (individual event entries) within the main-plots were randomized.
The following treatments with glyphosate were used as detailed below at different growth stages. In these tests, 1X glyphosate treatment was at 675 g ae/ha, 2X glyphosate treatment was at 1350 g ae/ha, 3X glyphosate treatment was at 2025 g ae/ha and 4X glyphosate treatment was at 2700 g ae/ha as active ingredient of glyphosate. All treatments were applied using a mechanical sprayer. For example, in Treatment 1 below, “2X cotyledon” describes a treatment of 1350 g ae/ha of glyphosate at the cotyledon growth stage. Various treatments were tested over a two year period and are described below.
as §1
To reduce the growth of weeds in the control plots, conventional herbicides or mechanical pulling of weeds were used as needed. There was no glyphosate applied to the control plots and was used as the control/base to which other glyphosate treatments were compared. The control plots may have had one or more weeds present during the growing season. Control is based on conventional herbicides that are registered for use in all canola.
Plots were considered desiccated when 60-70% of the seed had turned from green to black colour. Combining occurred 5-14 days after desiccation depending on the weather conditions. Each plot was harvested individually. Moisture and weight were recorded directly on the combine. Yield was determined for the GAT1 event.
Various locations were used in the test. Trials were evaluated across 10 locations in both Year 1 and Year 2. Locations included several sites in the short, mid, and long season zones across both years.
The event that was tested was canola event DP-73496-4 (GAT1) (PCT International Patent Application No. PCT/US2010/058011, incorporated by reference).
Late stage glyphosate applications are applications of glyphosate at later growth stages than on the glyphosate label. […]

GAT1 and GAT2 events [3] = assay: Herbicide efficacy trials in 9 locations, herbicide-induced necrosis and chlorosis injury; format: in vivo, Brassica
Protocol: (§2) Transgenic events expressing GAT1 and GAT2 genes were tested herein. GAT1, as mentioned herein is the Brassica GAT event DP-073496-4 (PCT International Patent Application No. PCT/US2010/058011, incorporated by reference). GAT2, as mentioned herein is another transgenic Brassica line expressing a GAT variant.
Chlorosis percent injury describes a visual rating of the percentage of the plant with a yellowing of the apical meristem, newest leaves or older leaves, where 100% denotes that all tissue is yellow, and 0% denotes the absence of yellowing tissue in plants treated with herbicide.
GAT2 events were subjected to herbicide efficacy trials along with the GAT1 as diagonal check in 9 different locations. The herbicide efficacy trials consisted of 6 treatments that included: a control with no glyphosate, 2X, 4X or 8X glyphosate administered at the 3-5 leaf stage (1X=675 g ae/ha), a 2X administered during the 3-5 leaf stage and during the green bud stage (+2X Green Bud), and a 2X administered during the 3-5 leaf stage and during 10% bloom (+2X 10% Bloom). Herbicide-induced necrosis and chlorosis injury was recorded at leaf stages 5, 10, 21 and 30 DAT (days after treatment). […] Yield from different treatments was expressed as a percent to the 2X treatment at the 3 to 5 leaf stage. […] The application of 4X glyphosate at the 3-5 leaf stage led to a 6 to 8% decrease in yield compared to the 2X treatment, and at the 8X rate, yield decreased from 10 to 12% in treated events compared to the 2X treatment (FIG. 3).

GAT1 and GAT2 events [4] = assay: Herbicide efficacy trials in 9 locations, yield as percent to the 2X treatment at the 3 to 5 leaf stage; format: in vivo, Brassica; settings: 2X at the 3-5 leaf stage and 2X during green bud or 10% bloom stage; FIG. 3
Protocol: as §2
Percentage of yield relative to 2X describes the yield obtained for the GAT events treated with respective glyphosate herbicide treatments compared to the same GAT events subjected to a solution containing 2X glyphosate treatment at the 3 to 5 leaf stage, expressed as a percentage of the 2X treatment at the 3 to 5 leaf stage.
GAT2 events were subjected to herbicide efficacy trials along with the GAT1 as diagonal check in 9 different locations. The herbicide efficacy trials consisted of 6 treatments that included: a control with no glyphosate, 2X, 4X or 8X glyphosate administered at the 3-5 leaf stage (1X=675 g ae/ha), a 2X administered during the 3-5 leaf stage and during the green bud stage (+2X Green Bud), and a 2X administered during the 3-5 leaf stage and during 10% bloom (+2X 10% Bloom). Herbicide-induced necrosis and chlorosis injury was recorded at leaf stages 5, 10, 21 and 30 DAT (days after treatment). […] Yield from different treatments was expressed as a percent to the 2X treatment at the 3 to 5 leaf stage. […]

O=C(O)CNCP(=O)(O)O [glyphosate]
chlorosis ([1]; Year 1, 2X Cot and 2X Bolting BBCH55 (2X = 1350 g ae/ha), all three hybrids, one location): 1%
recovery of transient chlorosis ([1]; Year 1, 2X Cot and 2X Bolting BBCH55, 10 days after glyphosate application): Full recovery
chlorosis ([1]; Year 1, 2X Cot and 2X Bolting BBCH55, one hybrid background, second location): 3%
crop response ([1]; Year 1, 2X Cot and 2X Bolting BBCH55, remaining eight locations): no crop response
crop response ([1]; Year 2, extended window glyphosate treatments, four GAT-expressing canola backgrounds): did not have any crop response
yield compared to the control treatment ([2]; Year 1, 2X Cot and 2X Bolting BBCH55): not significantly different
yield compared to the control treatment ([2]; Year 2, late split applications at 2X glyphosate (1350 g ae/ha), BBCH51 and BBCH61): did not result in yield reduction
yield compared to the control treatment ([2]; Year 2, split applications 1X Cot and 1X BBCH51 (green bud), 1X Cot and 1X BBCH61 (10% flower), four backgrounds, 1X = 675 g ae/ha): did not result in yield reduction
yield of GAT1 compared to the controls ([2]; at X treatment): did not show a reduction in yield
chlorotic injury (GAT1 and GAT2 events [3]; both GAT1 and GAT2 events, even at 8X spray rates, and during green bud and 10% bloom, FIG. 2): Negligible
herbicide-induced necrotic injury (GAT1 and GAT2 events [3]; even at 8X spray rates (1X = 675 g ae/ha), FIG. 1): minimally observed
herbicide-induced injury (necrosis, chlorosis) beyond 10 DAT (GAT1 and GAT2 events [3]; rated 5, 10, 21 and 30 DAT, 2X, 4X, 8X at 3-5 leaf, 2X+2X green bud, 2X+2X 10% bloom): No injury was observed
differences in yield compared to the 2X treatment at 3-5 leaf stage (GAT1 and GAT2 events [4]): no appreciable differences in yield

— patent publication US9713332B2, “Glyphosate application for weed control in Brassica” (priority 2013, dated 2017)
